# Assay results reported in patent US4785080A, “Labeled analytes” (Baker Instruments Corporation, priority 1985, dated 1988).
# “And” between values parts separate entries of the source, which are not always exact repeats. Equal entries are not always repeated.
# Tests used:
# Type in all cases: binding
# dilantin antibody [1] = experiment: Reference displacement curve for dilantin, colorimetric, CentrifiChem 500 (Example XX)
# Method: This Example illustrates the generation of a reference displacement curve for the dilantin analyte on the CentrifiChem®500 centrifugal fast analyzer. A […] substrate, 5'-O-acetyl-uridine-3'(4-methylumbelliferone-7-yl phosphate), was used.
# (§1) The following reagents were prepared:
# a. Dilantin S-peptide labeled analyte: Material prepared in the manner described in Examples V-VIII in 0.1M triethanolamine (TEA)-HCl buffer was used.
# b. Antibody: Anti-dilantin antisera was diluted by a factor of 1/20 with 0.1M TEA-HCl buffer of pH 7.1;
# c. Substrate: Seventeen milligrams of 5'-O-acetyl 2'-O-(tetrahydropyran-2-yl) uridine 3'-(4-methylumbelliferone-7-yl ammonium phosphate) was added to 750 ul 0.05N HCl and stirred at room temperature for 30 min. Sodium acetate buffer, (1.880 ml, 0.1M, pH 5..0), was added. Just before use, 300 ul of this solution was combined with 5.094 ml of 0.1M TEA-HCl buffer of pH 7.1;
# d. S-protein: Sigma purified commercial material was diluted by a factor of 1:100 with 0.1M TEA-HCl buffer of pH 7.1 to give a solution having a concentration of 1.53×10^-6 M;
# e. Dilantin standards: A stock solution of 5,5-diphenylhydantoin sodium salt (Sigma Lot 64C-0027) was made up by dissolving 48 mg in 1 liter of 0.025N sodium hydroxide. This was diluted by a factor of 1:10 with 0.025N sodium hydroxide to give a solution having 4.8 ug/ml. This was further diluted to give standard solutions having concentrations of 19.1, 47.8, 95.8, 143.6, and 191.5 ng/ml.
# The CentrifiChem® 500 centrifugal fast analyzer had the following instrument settings: rotor temp, 30°; filter, nm; To, 10 sec; T, 1 min; ABS 1.0 u; Blank, hold; test mode, Term; print out, ABS; conc. factor, 0; test code 0.
# Antibody, dilantin-S-peptide and 16.6 ul of the standard solution were pipetted into the sample well of channels to 16 of the transfer disc. S-protein and 300 ul of substrate were pipetted into each of the corresponding reagent wells of the transfer disc. The transfer disc was placed on the rotor and spun. […] Catalytic activity rates (a.u./min) were obtained frcm a least squares, regression analysis of absorbances as a function of time.
# dilantin antibody [2] = experiment: Homogeneous immunoassay of dilantin standards and clinical samples, automatic data reduction (Example XXI); conditions: human serum
# Method: This Example illustrates the design of an assay capable of directly assaying clinical samples, the use of the automatic pipetter (Model P-500) associated with the Centrifichem® 500 centrifugal fast analyzer, and the use of automatic data reduction.
# The following reagents were utilized:
# a. Labeled Analyte: Dilantin-S-peptide labeled analyte in 0.1 M triethanolamine (TEA)-HCl buffer, prepared in the manner described in Examples V-VIII was used.
# b. Antibody: Anti-dilantin antiserum (150 ul) was diluted with 900 ul of 0.1M TEA-HCl buffer of pH 7.1;
# c. Substrate: 5'-O-acetyl 2'-O-(tetrahydro pyran-2-yl) uridine 3'-(4-methylumbelliferone-7-yl ammonium phosphate) (6.4 mg) was added to 285.2 ul of 0.05N HCl and stirred at room temperature for 30 minutes. Sodium acetate buffer (714.8 ul, 0.1M, pH 5.0) was then added;
# S-protein: A 12.3×10^-5 M solution of Sigma S-protein was made up in 0.1M TEA-HCl buffer (pH 7.1);
# e. Dilantin standards: Solutions of 5, 5-diphenylhydantoin sodium salt (Sigma lot 64C-0027) were made up in human serum at concentrations of 2.5, 5.0, 10.0, 20.0 and 30.0 ug/ml.
# A mixture of 16 ul S-peptide labeled analyte, 10 ul of human serum albumin, 1430 ul of TEA-HCl buffer, and the substrate solution described in (c.) was prepared (designated Reagent 1). A second mixture consisting of 150 ul of antiserum, 50 ul of S-protein, and 1937.5 ul of TEA buffer was prepared (designated Reagent 2). Using the CentrifiChem® P-500 automatic pipetter, 4 ul of the appropriate standard solution was simultaneously diluted with 45 ul of deionized H2 O and pipetted into the sample well of transfer disc. At the same time, the pipetter delivered 250 ul of Reagent 1 into the reagent well and 100 ul of Reagent 2 into the sample well. Instrumental parameters for the CentrifiChem® 500 centrifugal fast analyzer were the same as that for Example XX with the exception that Test Code 29 was used. This provides for automatic data reduction by the microprocessor unit of the CentrifiChem® 500 instrument.
# dilantin antibody [3] = experiment: Heterogeneous double antibody solid phase immunoassay of dilantin, free phase catalytic activity (Example XXII)
# Method: A standard displacement curve is generated from the catalytic activity measurement using 5'-O-acetyluridyl-3'-(4-methylumbelliferone-7-yl) phosphate as a fluorogenic substrate for determination of analyte concentration of the control serum.
# as §1
# a. Dilantin-S-peptide labeled analyte: Labeled analyte in TEA-HCl buffer was prepared in the manner described in Examples V-VIII; 120 ul was diluted with 2860 ul of TEA-HCl buffer.
# b. Antibody: Anti-dilantin antisera (300 ul) was diluted with 1800 ul of TEA-HCl buffer.
# c. Solid phase immobilized second antibody: Bio-Rad IMMUNOBEAD™, Lot 17003, 50 mg was reconstituted with 50 ml of TEA-HCl buffer.
# d. Substrate: 5'-O-acetyl-2'-O-(tetrahydropyran-2-yl) uridyl-3'-(4-methylumbelliferone-7-yl) ammonium phosphate, 35 mg, was deblocked with 1.5 ml of 0.025M HCl for 40 minutes at room temperature and extracted twice with 5 ml of ether. The residual ether was removed by the stream of air and the acidic solution was buffered with acetate buffer to 100 ml.
# e. Acetate buffer: Sodium acetate buffer, 0.1M, pH 5.0.
# f. TEA-HCl buffer: Triethanolamine-HCl buffer, 0.05M, pH 7.5.
# g. […]
# h. S-protein: Sigma purified solution was diluted 1/20 in acetate buffer.
# […] Antibody aliquots of 100 ul were pipetted into each duplicate tube of standards and the resulting mixtures were vortexed and incubated for 20 minutes at room temperature. Dilantin-S-peptide labeled analyte aliquots of 100 ul each were then pipetted into all tubes. The resulting mixture was incubated for 20 mintes at room temperature.
# TEA-HCl buffer (108 ul), and Dilantin-S-peptide labeled analyte (100 ul) were pipetted into duplicate assay tubes labeled total. The resulting mixtures were mixed by vortexing and incubated for 20 minutes at room temperature.
# Next a second antibody solution of 500 ul each was pipetted into all tubes except for total assay tubes. TEA-HCl buffer (500 ul) was pipetted into total assay tubes. The resulting mixtures were mixed by vortexing and were incubated for 60 minutes at room temperature. All assay tubes except total were centrifuged for 5 minutes at 3000 rpm at 5°-10° C.
# The supernatant (free phase) of each tube was transferred into new tubes marked accordingly. The solid phase was resuspended with 0.5 ml of TEA buffer in each tube and centrifuged as above. The supernatant was decanted off.
# Dose responsive catalytic activity was measured as follows:
# An aliquot sample (50 ul each) of the free phase and total were assayed respectively with 1.8 ml of substrate and 50 ul of S-protein, measuring the fluorogenic product formation by emission at 440 nm when the mixture was excited at 325 nm, using a. Farrand Mark 1 fluorimeter.
# The raw data were fit by a modified log-logit algorithm where the rates at infinite and 0 standard concentrations are obtained by an iterative procedure. Each data point in the Table represents the mean of duplicate points.
structure (smiles),measurement,setting,value
"O=C1NC(=O)C(c2ccccc2)(c2ccccc2)N1 [dilantin, 5,5-diphenylhydantoin]",Rate,dilantin antibody [1]; standard 19.1 ng/ml,0.0154 a.u./min and 0.0171 a.u./min
same,Rate,dilantin antibody [1]; standard 47.8 ng/ml,0.0183 a.u./min and 0.0158 a.u./min
same,Rate,dilantin antibody [1]; standard 95.8 ng/ml,0.0191 a.u./min and 0.0197 a.u./min
same,Rate,dilantin antibody [1]; standard 143.6 ng/ml,0.0204 a.u./min and 0.0180 a.u./min
same,Rate,dilantin antibody [1]; standard 191.5 ng/ml,0.0209 a.u./min and 0.0205 a.u./min
same,10^3 Response,dilantin antibody [2]; standard 2.5 ug/ml,230 a.u. and 231 a.u.
same,10^3 Response,dilantin antibody [2]; standard 5 ug/ml,252 a.u. and 256 a.u.
same,10^3 Response,dilantin antibody [2]; standard 10 ug/ml,358 a.u. and 373 a.u.
same,10^3 Response,dilantin antibody [2]; standard 20 ug/ml,512 a.u. and 494 a.u.
same,10^3 Response,dilantin antibody [2]; standard 30 ug/ml,525 a.u. and 524 a.u.
same,"Rate, Mean",dilantin antibody [3]; standard 2.5 (ug/ml),10.0 na/min.
same,"Rate, Mean",dilantin antibody [3]; standard 5.0 (ug/ml),10.5 na/min.
same,"Rate, Mean",dilantin antibody [3]; standard 10.0 (ug/ml),14.0 na/min.
same,"Rate, Mean",dilantin antibody [3]; standard 20.0 (ug/ml),16.5 na/min.
same,"Rate, Mean",dilantin antibody [3]; standard 30.0 (ug/ml),19.0 na/min.
same,"Rate, Mean",dilantin antibody [3]; standard 40.0 (ug/ml),20.5 na/min.
